# In ChEMBL document CHEMBL1128575, “Nonpeptidic inhibitors of human leukocyte elastase. 5. Design, synthesis, and X-ray crystallography of a series of orally active 5-aminopyrimidin-6-one-containing trifluoromethyl ketones” (J Med Chem, 1995):
# Calls of active or inactive are those of the source. The calls are words filed in the database; no cut-off is given here.
# Key:
# [1] = Tmax is the time of maximum concentration in rat at 10 mg/kg oral dose; assay type: ADME, organism-based; set-up: dose 10 mg/kg, route oral; settings: in vivo
# [2] = Area under the concentration vs time curve in rat at 10 mg/kg oral dose; assay type: ADME, organism-based; set-up: dose 10 mg/kg, route oral; settings: in vivo
# [3] = Tmax is the time of maximum concentration in hamster at 10 mg/kg oral dose; assay type: ADME, organism-based; set-up: dose 10 mg/kg, route oral; settings: cricetinae, in vivo
# Cricetinae gen. sp. [4] = assay: Oral dose of 2.5 mg/Kg (30 min prior to instillation of elastase) was tested for the inhibition of elastase-induced lung hemorrhage in hamster; assay type: functional, Cricetulus griseus
# Cricetinae gen. sp. [5] = assay: Oral dose of 2.5 mg/Kg (90 min prior to instillation of elastase) was tested for the inhibition of elastase-induced lung hemorrhage in hamster; assay type: functional, Cricetulus griseus
# [6] = Half life in plasma in dog at 10 mg/kg oral dose; assay type: ADME, organism-based, Canis lupus familiaris; set-up: dose 10 mg/kg, route oral
# [7] = Half life in plasma in hamster at 10 mg/kg oral dose; assay type: ADME, organism-based; set-up: dose 10 mg/kg, route oral; settings: cricetinae
# [8] = Area under the concentration vs time curve in dog at 10 mg/kg oral dose; assay type: ADME, organism-based, Canis lupus familiaris; set-up: dose 10 mg/kg, route oral; settings: in vivo
# [9] = Maximum concentration in plasma recorded in the period 0-6 hr post dose in hamster at 10 mg/kg oral dose; assay type: ADME, organism-based; set-up: dose 10 mg/kg, route oral; settings: cricetinae
# [10] = Half life in plasma in rat at 10 mg/kg oral dose; assay type: ADME, organism-based; set-up: dose 10 mg/kg, route oral
# [11] = Area under the concentration vs time curve in hamster at 10 mg/kg oral dose; assay type: ADME, organism-based; set-up: dose 10 mg/kg, route oral; settings: cricetinae, in vivo
# Cricetinae gen. sp. [12] = assay: Oral dose of 20 mg/Kg (30 min prior to instillation of elastase) was tested for the inhibition of elastase-induced lung hemorrhage in hamster; assay type: functional, Cricetulus griseus
# [13] = Maximum concentration in plasma recorded 0-6 hr post dose in dog at 10 mg/kg oral dose; assay type: ADME, organism-based, Canis lupus familiaris; set-up: dose 10 mg/kg, route oral
# [14] = Tmax is the time of maximum concentration in dog at 10 mg/kg oral dose; assay type: ADME, organism-based, Canis lupus familiaris; set-up: dose 10 mg/kg, route oral; settings: in vivo
# [15] = Maximum concentration in plasma recorded in the period 0-6 hr post dose in rat at 10 mg/kg oral dose; assay type: ADME, organism-based; set-up: dose 10 mg/kg, route oral
# Neutrophil elastase = biological target: T1, Neutrophil elastase (Homo sapiens, UniProt P08246); assay: In vitro inhibition of human leukocyte elastase mediated hydrolysis of the synthetic substrate MeO-Suc-Ala-Ala-Pro-Val-pNA
# T1 sequence (P08246 whole entry): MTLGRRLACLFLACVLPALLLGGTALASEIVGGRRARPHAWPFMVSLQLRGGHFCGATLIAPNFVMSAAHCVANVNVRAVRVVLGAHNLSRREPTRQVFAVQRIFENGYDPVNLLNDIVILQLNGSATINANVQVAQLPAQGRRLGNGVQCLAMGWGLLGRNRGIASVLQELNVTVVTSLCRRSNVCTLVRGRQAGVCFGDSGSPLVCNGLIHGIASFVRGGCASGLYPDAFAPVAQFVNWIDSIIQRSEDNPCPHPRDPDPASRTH
# Cricetinae gen. sp. [16] = assay: Oral dose of 20 mg/Kg (30 min prior to instillation of elastase) was tested for the inhibition of elastase-induced lung hemorrhage in hamster; Not active; assay type: functional, organism-based; settings: Cricetulus griseus
# [17] = Solubility of compound in 0.01 M sodium phosphate buffer at pH = […]; assay type: physicochemical; settings: pH 7.4
# [18] = Partition coefficient (logP); assay type: physicochemical; settings: octanol/water
# [19] = Selectivity ratio for bovine pancreatic chymotrypsin and HLE
# Cricetinae gen. sp. [20] = assay: Oral dose of 2.5 mg/Kg (30 min prior to instillation of elastase) was tested for the inhibition of elastase-induced lung hemorrhage in hamster; Not active; assay type: functional, organism-based; settings: Cricetulus griseus
# Cricetinae gen. sp. [21] = assay: Compound at an oral dose of 20 mg/Kg (90 min prior to instillation of elastase) was tested for the inhibition of elastase-induced lung hemorrhage in hamster; assay type: functional, Cricetulus griseus
# Cricetinae gen. sp. [22] = assay: Compound at an oral dose of 2.5 mg/Kg (90 min prior to instillation of elastase) was tested for the inhibition of elastase-induced lung hemorrhage in hamster; Not active; assay type: functional, organism-based; settings: Cricetulus griseus
compound,measurement,setting,value
CC(C)C(NC(=O)Cn1c(-c2ccc(F)cc2)ncc(N)c1=O)C(=O)C(F)(F)F (centres undefined),Tmax,[1],1 h
same,AUC,[2],5170 ng·h/mL
same,Tmax,[3],0.25 h
same,inhibition in vivo at 2.5 mg/kg,Cricetinae gen. sp. [4],43%
same,inhibition in vivo at 2.5 mg/kg,Cricetinae gen. sp. [5],49%
same,half-life,[6],0.967 h
same,half-life,[7],1.35 h
same,AUC,[8],5950 ng·h/mL
same,Cmax,[9],750 ng/mL
same,half-life,[10],1.6 h
same,AUC,[11],1190 ng·h/mL
same,inhibition in vivo at 20 mg/kg,Cricetinae gen. sp. [12],66%
same,Cmax,[13],3230 ng/mL
same,Tmax,[14],1 h
same,Cmax,[15],1900 ng/mL
CC(C)C(NC(=O)Cn1c(-c2ccc(NC(=O)C(F)(F)F)cc2)ncc(NC(=O)OCc2ccccc2)c1=O)C(=O)C(F)(F)F (centres undefined),Ki,Neutrophil elastase,43 nM
same,inhibition,Cricetinae gen. sp. [16],inactive
CC(C)C(NC(=O)Cn1c(-c2ccc(F)cc2)ncc(NC(=O)OCc2ccccc2)c1=O)C(=O)C(F)(F)F (centres undefined),solubility,[17],6.9 µg/mL
same,logP,[18],2.2
same,inhibition in vivo at 20 mg/kg,Cricetinae gen. sp. [12],54%
CC(C)C(NC(=O)Cn1c(C2CCCCC2)ncc(NC(=O)OCc2ccccc2)c1=O)C(=O)C(F)(F)F (centres undefined),Ki,Neutrophil elastase,57 nM
same,solubility,[17],42 µg/mL
same,logP,[18],2.9
same,inhibition,Cricetinae gen. sp. [16],inactive
CSC(=O)Nc1cnc(-c2ccc(F)cc2)n(CC(=O)NC(C(=O)C(F)(F)F)C(C)C)c1=O (centres undefined),inhibition in vivo at 2.5 mg/kg,Cricetinae gen. sp. [5],50%
same,Ki,Neutrophil elastase,23 nM
COC(=O)Nc1cnc(-c2ccc(F)cc2)n(CC(=O)NC(C(=O)C(F)(F)F)C(C)C)c1=O (centres undefined),inhibition in vivo at 2.5 mg/kg,Cricetinae gen. sp. [4],39%
same,inhibition in vivo at 20 mg/kg,Cricetinae gen. sp. [12],73%
CC(C)C(NC(=O)Cn1c(-c2ccc(C(F)(F)F)cc2)ncc(NC(=O)OCc2ccccc2)c1=O)C(=O)C(F)(F)F (centres undefined),Ratio,[19],164
same,Ki,Neutrophil elastase,42 nM
same,solubility,[17],25 µg/mL
same,logP,[18],2.3
same,inhibition,Cricetinae gen. sp. [16],inactive
COC(=O)Nc1cnc(-c2ccc(F)cc2)n(CC(=O)NC(B2OC(C)(C)C(C)(C)O2)C(C)C)c1=O (centres undefined),Ki,Neutrophil elastase,7.7 nM
same,inhibition,Cricetinae gen. sp. [20],inactive
CC(C)C(NC(=O)Cn1c(-c2cc(F)cc(F)c2)ncc(NC(=O)OCc2ccccc2)c1=O)C(=O)C(F)(F)F (centres undefined),Ratio,[19],230
same,Ki,Neutrophil elastase,20 nM
same,inhibition in vivo at 20 mg/kg,Cricetinae gen. sp. [12],43%
CC(C)C(NC(=O)Cn1c(-c2ccc(F)cc2)ncc(NS(=O)(=O)C2CCCCC2)c1=O)C(=O)C(F)(F)F (centres undefined),Ki,Neutrophil elastase,1.6 nM
same,inhibition,Cricetinae gen. sp. [20],inactive
CSC(=O)Nc1cnc(-c2ccccc2)n(CC(=O)NC(C(=O)C(F)(F)F)C(C)C)c1=O (centres undefined),inhibition in vivo at 2.5 mg/kg,Cricetinae gen. sp. [5],32%
same,Ki,Neutrophil elastase,16 nM
same,inhibition in vivo at 20 mg/kg,Cricetinae gen. sp. [21],57%
CC(C)C(NC(=O)Cn1c(-c2ccc(N)cc2)ncc(NS(C)(=O)=O)c1=O)C(=O)C(F)(F)F (centres undefined),inhibition,Cricetinae gen. sp. [16],inactive
CC(C)C(NC(=O)Cn1c(-c2cccs2)ncc(NC=O)c1=O)C(=O)C(F)(F)F (centres undefined),inhibition in vivo at 2.5 mg/kg,Cricetinae gen. sp. [5],37%
same,Ki,Neutrophil elastase,100 nM
same,inhibition in vivo at 20 mg/kg,Cricetinae gen. sp. [21],58%
Cc1cncc(C)c1COC(=O)Nc1cnc(-c2ccc(F)cc2)n(CC(=O)NC(B2OC(C)(C)C(C)(C)O2)C(C)C)c1=O (centres undefined),Ki,Neutrophil elastase,0.96 nM
same,inhibition,Cricetinae gen. sp. [20],inactive
CC(C)C(NC(=O)Cn1c(-c2ccc(F)cc2)ncc(N)c1=O)B1OC(C)(C)C(C)(C)O1 (centres undefined),Ki,Neutrophil elastase,6.2 nM
same,inhibition,Cricetinae gen. sp. [20],inactive
same,inhibition in vivo at 20 mg/kg,Cricetinae gen. sp. [12],39%
CNc1cnc(-c2ccc(F)cc2)n(CC(=O)NC(C(=O)C(F)(F)F)C(C)C)c1=O (centres undefined),inhibition,Cricetinae gen. sp. [22],inactive
same,inhibition in vivo at 2.5 mg/kg,Cricetinae gen. sp. [4],43%
same,Ki,Neutrophil elastase,46 nM
same,inhibition in vivo at 20 mg/kg,Cricetinae gen. sp. [12],89%
CC(C)C(NC(=O)Cn1c(-c2cccs2)ncc(NC(=O)OCc2ccccc2)c1=O)C(=O)C(F)(F)F (centres undefined),Ratio,[19],162
same,Ki,Neutrophil elastase,11 nM
same,solubility,[17],48 µg/mL
same,logP,[18],2
same,inhibition in vivo at 20 mg/kg,Cricetinae gen. sp. [12],57%
CC(C)c1ncc(NC(=O)OCc2ccccc2)c(=O)n1CC(=O)NC(C(=O)C(F)(F)F)C(C)C (centres undefined),Ratio,[19],100
same,Ki,Neutrophil elastase,170 nM
same,solubility,[17],40 µg/mL
same,logP,[18],2.6
same,inhibition,Cricetinae gen. sp. [16],inactive
CCNc1cnc(-c2cccs2)n(CC(=O)NC(C(=O)C(F)(F)F)C(C)C)c1=O (centres undefined),inhibition in vivo at 2.5 mg/kg,Cricetinae gen. sp. [5],32%
same,Ki,Neutrophil elastase,26 nM
same,inhibition in vivo at 20 mg/kg,Cricetinae gen. sp. [12],52%
